Assay results reported in patent US20210299286A1, “TETRAZINES FOR HIGH CLICK CONJUGATION YIELD IN VIVO AND HIGH CLICK RELEASE YIELD” (Tagworks Pharmaceuticals B.V., priority 2018, published 2021).

Columns and labels:
CC49-TCO-Dox [1] = assay: In vitro Dox release from CC49-TCO-Dox in PBS; format: biochemical
Experimental: (§1) Doxorubicin (Dox) release from the TCO-linked ADC CC49-TCO-Dox with various TZ activators in PBS and 50% mouse serum at 37° C. was evaluated in vitro as described in Rossin et al. Bioconjug. […] The results of these experiments are depicted in Tables 3 (PBS) and 4 (mouse serum). The release reactions were performed in triplicate unless otherwise stated in the result table.

CC49-TCO-Dox [2] = assay: In vitro Dox release from CC49-TCO-Dox in 50% mouse serum; format: biochemical
Experimental: as §1

[3] = In vitro tetrazine stability (decrease of UV absorbance at 520 nm); format: physicochemical; conditions: 10% MeCN/PBS; read-out: In vitro tetrazine stability (h), t1/2 (converted)
Experimental: The stability of tetrazines was evaluated by dissolving them in 10% MeCN/PBS at 37° C. and following the decrease of the tetrazine UV absorbance at 520 nm in time (Table 4).

[4] = Second-order reaction rate constant with TCO derivative by UV spectroscopy; format: physicochemical; conditions: 25% MeCN/PBS at 20° C.
Experimental: The second-order reaction rate constants were calculated from the rate at which the absorption at 520 nm (specific for the TZ moiety) decreased (Table 4).

AVP0458-TCO-MMAE = assay: MMAE release from diabody ADC with D8-MMAE internal standard (LC-SIM-MS); format: biochemical; conditions: 10 equiv of tetrazine, PBS/plasma (1/1), 37° C., after 24 h, n=3
Experimental: In an alternative method MMAE release from diabody ADC (AVP0458-TCO-MMAE) was determined by using a deuterated internal standard D8-MMAE. ADC (1.1×10^−10 moles bound MMAE) and D8-MMAE (1.1×10^−10 moles) and 10 equiv of tetrazine were incubated in 100 uL PBS/plasma (1/1) at 37° C.

[5] = system: LS174T tumor-bearing mice; assay: Tumor blocking experiment, mice pretreated with IgG-based ADC CC49-TCO-Dox; format: in vivo, mouse; conditions: CC49-TCO-Dox 5 mg/kg, clearing agent, TZ activator, probe [177Lu]Lu-5.1; compared with the other TZ's
Experimental: (§2) The animal studies were performed in accordance with the principles established by the revised Dutch Act on Animal Experimentation (1997) and were approved by the institutional Animal Welfare Committee of the Maastricht University and Radboud University Nijmegen. The colorectal cancer (LS174T) mouse model was reported in Rossin et al. Bioconjug. Chem., 2016, 27, 1697-1706.
(§3) To assess the in vivo reaction of TZ activators towards TCO-containing ADCs, tumor blocking experiments were performed as described in Rossin et al., Bioconjug. Chem. 2016, 27, 1697-1706.
A series of 3,6-bisalkyl TZ activators (2.1, 2.2, 2.9, 2.11, 2.12) and 3-alkyl-6-pyridyl TZ activators (3.1, 3.2, 3.4) was tested in tumor-bearing mice (n=3-4) pretreated with an IgG-based ADC (CC49-TCO-Dox, DAR ca. 2) at a 5 mg/kg dose. A clearing agent (galactose-albumin-TZ, Rossin et al., J. Nucl. Med. 2013, 54, 1989-1995) was administered to the mice 24 post-ADC injection followed by the TZ activator (dose 10×: ca. 0.033 mmol/kg; close 100×: ca. 0.335 mmol/kg) 2 h later. One-hour after activation the mice were administered the highly reactive radiolabeled probe [^177Lu]Lu-5.1 (ca. 0.335 μmol/kg, ca. 1.5 MBq/mouse) and were euthanized 3 h later. All injections were performed intravenously. Tumors were harvested and the radioactivity was measured by γ-counting along with standards to determine the % injected dose per gram (% ID/g). […]

[6] = system: LS174T tumor-bearing mice; assay: Tumor blocking experiment, mice pretreated with diabody-based ADC AVP0458-TCO-MMAE; format: in vivo, mouse; conditions: AVP0458-TCO-MMAE ca. 2 mg/kg, activator 48 h later, probe [111In]In-5.1; compared with the other TZ's
Experimental: as §2, §3
A series of 3-pyrimidyl-6-alkyl TZ activators (4.1, 4.11, 4.13, 4.15, 4.26, 4.28) was then compared to compound 4.12 in LS174T tumor-bearing mice (n=3-5) pretreated with a diabody-based ADC (AVP0458-TCO-MMAE; DAR=4). The mice were injected the ADC at a ca. 2 mg/kg dose followed 48 h later by the activator (dose 1×: ca. 3.35 μmol/kg; dose 2.5×: ca. […]; dose 5×: ca. 0.017 mmol/kg; dose 10×: ca. 0.033 mmol/kg; dose 100×: ca. 0.335 mmol/kg) and, 1 h post-activator, by the [^111In]In-5.1 probe. Three hours ([…], 4.15) or 24 h (4.26, 4.28) post-probe injection the mice were euthanized and the tumor blocking capacity of the various activators at the administered dose (FIG. 2B) was calculated as reported above.

[7] = In vitro microsomal stability of TZ activators, human microsomes; format: in vitro ADME; conditions: 5 μM activator, 0.5 mg/mL microsomes, normalized to 100% at t=0, LC-MS
Experimental: (§4) The in vitro stability of activators 4.11, 4.13, and 4.15 was tested in the presence of human, mouse, rat and cynomolgus microsomes after 30 min incubation (normalized to 100% at t=0). Control samples were incubated with the same concentration of BSA. The activators (5 μM) were incubated in 20 mM phosphate buffer pH 7.4 containing the microsomes (0.5 mg/mL), 1 mM NADP, 5 mM glucose-6-phosphate, 1 U/mL glucose-6-phosphate dehydrogenase, and 2 mM MgCl2 at 37° C. and the measurements were performed by LC-MS. The amount of activator in solution was quantified using calibration curves.

[8] = In vitro microsomal stability of TZ activators, mouse microsomes; format: in vitro ADME; conditions: 5 μM activator, 0.5 mg/mL microsomes, normalized to 100% at t=0, LC-MS
Experimental: as §4

[9] = In vitro microsomal stability of TZ activators, rat microsomes; format: in vitro ADME; conditions: 5 μM activator, 0.5 mg/mL microsomes, normalized to 100% at t=0, LC-MS
Experimental: as §4

[10] = In vitro microsomal stability of TZ activators, cynomolgus microsomes; format: in vitro ADME; conditions: 5 μM activator, 0.5 mg/mL microsomes, normalized to 100% at t=0, LC-MS
Experimental: as §4

[11] = Control incubation with BSA in the microsomal stability test; format: in vitro ADME; conditions: control samples, same concentration of BSA
Experimental: as §4

Compound | In vitro Dox release (%) from CC49-Dox at 37° C. in PBS: 1 h (CC49-TCO-Dox [1]; 1 h) [%] | In vitro Dox release (%) from CC49-Dox at 37° C. in PBS: 2 h (CC49-TCO-Dox [1]; 2 h) [%] | In vitro Dox release (%) from CC49-Dox at 37° C. in PBS: 3 h (CC49-TCO-Dox [1]; 3 h) [%] | In vitro Dox release (%) from CC49-Dox at 37° C. in PBS: 24 h (CC49-TCO-Dox [1]; 24 h) [%] | In vitro Dox release (%) from CC49-Dox at 37° C. in PBS: 48 h (CC49-TCO-Dox [1]; 48 h) [%] | In vitro Dox release (%) from CC49-Dox at 37° C. in 50% mouse serum: 1 h (CC49-TCO-Dox [2]; 1 h) [%] | In vitro Dox release (%) from CC49-Dox at 37° C. in 50% mouse serum: 2 h (CC49-TCO-Dox [2]; 2 h) [%] | In vitro Dox release (%) from CC49-Dox at 37° C. in 50% mouse serum: 3 h (CC49-TCO-Dox [2]; 3 h) [%] | half-life [3] [h] | reactivity (k2) [4] [M⁻¹ s⁻¹] | induced MMAE release (%) from AVP0458-TCO-MMAE (AVP0458-TCO-MMAE) [%] | tumor blocking capacity (FIG. 2A) [5] | tumor blocking capacity (FIG. 2B) [6] | In vitro microsomal stability of TZ activators after 30 min incubation at 37° C.: Human [7] [%] | In vitro microsomal stability of TZ activators after 30 min incubation at 37° C.: Mouse [8] [%] | In vitro microsomal stability of TZ activators after 30 min incubation at 37° C.: Rat [9] [%] | In vitro microsomal stability of TZ activators after 30 min incubation at 37° C.: Cynomolgus [10] [%] | In vitro microsomal stability of TZ activators after 30 min incubation at 37° C.: BSA [11] [%]
Cc1nnc(C)nn1 [Compound 2.1, 3,6-dimethyl-1,2,4,5-tetrazine] | 76.1 | 78.5 | 78.8 | 80.6 | 81.5 | 64.6 ± 1.0 | 68.7 ± 1.1 | 69.7 ± 1.0 | 14 | 14 | 95 ± 0.4 | perform much worse |  |  |  |  |  | 
Cc1nnc(-c2ncccn2)nn1 [Compound 4.1, 3-methyl-6-(pyrimidin-2-yl)-1,2,4,5-tetrazine, reference compound] |  |  |  |  |  |  |  |  | 10 | 250 | 69 ± 0.0 |  | perform much worse |  |  |  |  | 
CN(CCc1nnc(-c2ncccn2)nn1)C(=O)CCCC(=O)NC(CO)(CO)CO [Compound 4.15] |  |  |  |  |  |  |  |  |  |  | 55 ± 0.4 |  |  | 87.7 | 81.2 | 91.1 | 85.6 ± 0.5 | 87.5
